{"source": "patent US20150344820A1", "about": "“COMPOSITIONS AND METHODS FOR BIOFILM TREATMENT” (The Procter & Gamble Company, priority 2014, published 2015)", "key": {"[1]": {"assay": "Dynamic surface tension at 51 ms bubble lifetime (bubble pressure tensiometer)", "format": "physicochemical", "conditions": "for Surface tension reduction at dilute concentrations of KOH: KOH <1.5-2.0 M; for Surface tension reduction at dilute concentrations of KOH / Surface tension change as the KOH concentration is increased: 51 ms (FIG. 3); for Surface Tension @ 51 ms: no surfactant", "description": "The dynamic surface tension of a liquid may be determined by using a tensiometer. The tensiometer may measure the dynamic surface tension of the liquid according to the bubble pressure method. The bubble pressure method includes injecting a gas, such as air, into a liquid that is to be analyzed. The gas enters the liquid through a capillary that is immersed within the liquid. The difference in pressure between the gas and the liquid is recorded at several gas flow rates. The difference in pressure for each flow rate that is required to form a bubble is proportional to the surface tension of the liquid by the Young-Laplace equation, as reproduced below: […]\nwhere Δp is the pressure differential between the pressure inside the gas bubble and the pressure outside the gas bubble within the liquid in Newtons per square meter (N/m^2); d is the diameter of the capillary in meters (m); and σ is the surface tension of the liquid in Newtons per meter (N/m). The dynamic surface tension of the liquid is calculated for each gas flow rate using the Young-Laplace equation for each flow rate. The bubble lifetime is equal to the time elapsed between the formation of the each bubble and is recorded for each flow rate. The calculated dynamic surface tension values are plotted versus the bubble lifetime.\nThe method of measuring the dynamic surface tension of a liquid may generally include the steps of: (1) calibrating the tensiometer; (2) cleaning the capillary of the tensiometer; and (3) measuring the dynamic surface tension and bubble lifetime of the liquid with the tensiometer. The method of measuring the dynamic surface tension of a liquid with a tensiometer may, for example, generally follow American Society for Testing and Materials standard ASTM D3825-09.\nA SITA science line t60 tensiometer, available from SITA Messetechnik GmbH (Dresden, Germany), may be used to measure the dynamic surface tension of a liquid, such as an electrolyte solution. The t60 tensiometer may be calibrated according to SITA Messetechnik instructions with the tensiometer in Calibration Mode. See SITA science line t60 Manual, p. 4, Section 12.1. The calibration is completed by placing the tip of the capillary tube of the tensiometer into about 25 mL of deionized (DI) water that is held within a glass vessel, such as a 50 mL beaker. The tip of the capillary tube should extend into the solution to the manufacturer's recommended depth that is signaled by a mark on the temperature probe of the tensiometer. The temperature of the DI water should be between about 20° C. and about 30° C.\nThe t60 tensiometer may then be cleaned according to SITA Messetechnik instructions with the tensiometer in Cleaning Mode. See Id., p. 20, Section 12.4. The capillary tube may first be rinsed with DI water. The cleaning is completed by placing the tip of the capillary tube of the tensiometer into about 25 mL of deionized (DI) water that is held within a glass vessel, such as a 50 mL beaker. The tip of the capillary tube should extend into the solution to the manufacturer's recommended depth that is signaled by a mark on the temperature probe of the tensiometer. The temperature of the DI water should be between about 20° C. and about 30° C. Air is rapidly bubbled through the capillary tube of the tensiometer for about two (2) minutes.\nThe t60 tensiometer may then be used to obtain dynamic surface tension of the liquid solution to be analyzed. The data may be obtained according to SITA Messetechnik instructions with the tensiometer in Auto-Measurement Mode. See Id., p. 18, Section 12.3. The auto-measurement is completed by placing the tip of the capillary tube of the tensiometer into about 25 mL of the liquid solution that is held within a glass vessel, such as a 50 mL beaker. The tip of the capillary tube should extend into the solution to the manufacturer's recommended depth that is signaled by a mark on the temperature probe of the tensiometer. […]"}, "[2]": {"conditions": "KOH solutions greater than 5M", "from_the_text": "Three different N,N′-dimethylamine oxide surfactants from the same homologous series (i.e., same chemical structure except for tail length) were used to make aqueous alkali surfactant compositions having 2500 ppm surfactant and various concentrations of KOH, as shown by Tables 4, 5, and 6 below."}}, "data": [{"smiles": "CCCCB(O)O", "note": "[Butyl Boronic Acid]", "values": [{"measurement": "SFT (dynamic surface tension at 51 ms)", "setting": "[1]; 1.5% surfactant, [KOH] 0", "result": 62.3, "unit": "mN/m"}, {"measurement": "SFT (dynamic surface tension at 51 ms)", "setting": "[1]; 1.5% surfactant, [KOH] 0.5", "result": 71.8, "unit": "mN/m"}, {"measurement": "SFT (dynamic surface tension at 51 ms)", "setting": "[1]; 1.5% surfactant, [KOH] 0.75", "result": 73, "unit": "mN/m"}, {"measurement": "SFT (dynamic surface tension at 51 ms)", "setting": "[1]; 1.5% surfactant, [KOH] 2", "result": 84.6, "unit": "mN/m"}, {"measurement": "SFT (dynamic surface tension at 51 ms)", "setting": "[1]; 1.5% surfactant, [KOH] 4", "result": 73.5, "unit": "mN/m"}, {"measurement": "SFT (dynamic surface tension at 51 ms)", "setting": "[1]; 1.5% surfactant, [KOH] 6.6", "result": 53.8, "unit": "mN/m"}, {"measurement": "SFT (dynamic surface tension at 51 ms)", "setting": "[1]; 1.5% surfactant, [KOH] 8.7", "result": 43.6, "unit": "mN/m"}]}, {"smiles": "CCCCCCCCCCCC[N+](C)(C)[O-]", "note": "[Dodecyl-N,N′-Dimethylamine Oxide, reference compound]", "values": [{"measurement": "SFT (dynamic surface tension at 51 ms)", "setting": "[1]; 2500 ppm surfactant, KOH 0 M", "result": 37.7, "unit": "mN/m"}, {"measurement": "SFT (dynamic surface tension at 51 ms)", "setting": "[1]; 2500 ppm surfactant, KOH 1 M", "result": 37.6, "unit": "mN/m"}, {"measurement": "SFT (dynamic surface tension at 51 ms)", "setting": "[1]; 2500 ppm surfactant, KOH 3 M", "result": 65.4, "unit": "mN/m"}, {"measurement": "SFT (dynamic surface tension at 51 ms)", "setting": "[1]; 2500 ppm surfactant, KOH 5 M", "result": 78.5, "unit": "mN/m"}, {"measurement": "Surface tension reduction at dilute concentrations of KOH", "setting": "[1]; 2500 ppm surfactant", "result": "do provide some surface tension reduction"}, {"measurement": "Surface tension change as the KOH concentration is increased", "setting": "[1]; 2500 ppm surfactant", "result": "the surface tension increases"}, {"measurement": "Solubility in KOH solutions", "setting": "[2]", "result": "not soluble"}]}, {"smiles": "[K+].[OH-]", "note": "[KOH, Potassium hydroxide]", "values": [{"measurement": "Surface Tension @ 51 ms", "setting": "[1]; aqueous KOH 0.5 M", "result": 72.6, "unit": "mN/m"}, {"measurement": "Surface Tension @ 51 ms", "setting": "[1]; aqueous KOH 1.0 M", "result": 73.6, "unit": "mN/m"}, {"measurement": "Surface Tension @ 51 ms", "setting": "[1]; aqueous KOH 2.0 M", "result": 73, "unit": "mN/m"}, {"measurement": "Surface Tension @ 51 ms", "setting": "[1]; aqueous KOH 3.0 M", "result": 76, "unit": "mN/m"}, {"measurement": "Surface Tension @ 51 ms", "setting": "[1]; aqueous KOH 5.0 M", "result": 79.8, "unit": "mN/m"}, {"measurement": "Surface Tension @ 51 ms", "setting": "[1]; aqueous KOH 8.7 M", "result": 86.9, "unit": "mN/m"}]}, {"smiles": "CCCCCCCC[N+](C)(C)[O-]", "note": "[Octyl-N,N′-Dimethylamine Oxide]", "values": [{"measurement": "SFT (dynamic surface tension at 51 ms)", "setting": "[1]; 2500 ppm surfactant, KOH 0 M", "result": 59.8, "unit": "mN/m"}, {"measurement": "SFT (dynamic surface tension at 51 ms)", "setting": "[1]; 2500 ppm surfactant, KOH 0.18 M", "result": 56.5, "unit": "mN/m"}, {"measurement": "SFT (dynamic surface tension at 51 ms)", "setting": "[1]; 2500 ppm surfactant, KOH 0.36 M", "result": 57, "unit": "mN/m"}, {"measurement": "SFT (dynamic surface tension at 51 ms)", "setting": "[1]; 2500 ppm surfactant, KOH 0.53 M", "result": 56.3, "unit": "mN/m"}, {"measurement": "SFT (dynamic surface tension at 51 ms)", "setting": "[1]; 2500 ppm surfactant, KOH 1.78 M", "result": 50.6, "unit": "mN/m"}, {"measurement": "SFT (dynamic surface tension at 51 ms)", "setting": "[1]; 2500 ppm surfactant, KOH 2.67 M", "result": 44.4, "unit": "mN/m"}, {"measurement": "SFT (dynamic surface tension at 51 ms)", "setting": "[1]; 2500 ppm surfactant, KOH 3.56 M", "result": 38.2, "unit": "mN/m"}, {"measurement": "SFT (dynamic surface tension at 51 ms)", "setting": "[1]; 2500 ppm surfactant, KOH 4.46 M", "result": 34.5, "unit": "mN/m"}, {"measurement": "SFT (dynamic surface tension at 51 ms)", "setting": "[1]; 2500 ppm surfactant, KOH 5.35 M", "result": 32.9, "unit": "mN/m"}, {"measurement": "SFT (dynamic surface tension at 51 ms)", "setting": "[1]; 2500 ppm surfactant, KOH 5.53 M", "result": 30.7, "unit": "mN/m"}, {"measurement": "SFT (dynamic surface tension at 51 ms)", "setting": "[1]; 2500 ppm surfactant, KOH 6.24 M", "result": 32.1, "unit": "mN/m"}, {"measurement": "SFT (dynamic surface tension at 51 ms)", "setting": "[1]; 2500 ppm surfactant, KOH 6.59 M", "result": 32.1, "unit": "mN/m"}, {"measurement": "Surface tension reduction at dilute concentrations of KOH", "setting": "[1]; 2500 ppm surfactant", "result": "does not provide or provides little surface tension reduction"}, {"measurement": "Surface tension change as the KOH concentration is increased", "setting": "[1]; 2500 ppm surfactant", "result": "provides significant surface tension reduction"}, {"measurement": "Solubility in KOH solutions", "setting": "[2]", "result": "no such limit"}]}, {"smiles": "CCCCCCCCCCCCCC[N+](C)(C)[O-]", "note": "[Tetradecyl-N,N′-Dimethylamine Oxide, reference compound]", "values": [{"measurement": "SFT (dynamic surface tension at 51 ms)", "setting": "[1]; 2500 ppm surfactant, KOH 0 M", "result": 43.1, "unit": "mN/m"}, {"measurement": "SFT (dynamic surface tension at 51 ms)", "setting": "[1]; 2500 ppm surfactant, KOH 1 M", "result": 49.9, "unit": "mN/m"}, {"measurement": "SFT (dynamic surface tension at 51 ms)", "setting": "[1]; 2500 ppm surfactant, KOH 5 M", "result": 80.6, "unit": "mN/m"}, {"measurement": "Surface tension reduction at dilute concentrations of KOH", "setting": "[1]; 2500 ppm surfactant", "result": "do provide some surface tension reduction"}, {"measurement": "Surface tension change as the KOH concentration is increased", "setting": "[1]; 2500 ppm surfactant", "result": "the surface tension increases"}, {"measurement": "Solubility in KOH solutions", "setting": "[2]", "result": "not soluble"}]}]}
